Assay results as given in patent publication US20130336950A1, “MATERIAL COMBINATION FOR TREATING INFLAMMATORY OR INFECTIOUS DISEASES” (priority 2010, published 2013).
Entries after “also recorded” stand apart in the source; their conditions may differ. Ends that are not written are not given here.

Assays:
[1] = test system: Bifidobacterium adolescentis Ni3,29c; test: transmission electron microscopy of the bacteria; assay type: cell-based; conditions: 200 μg/ml, 2 hours, 37° C., anaerobic
Protocol: For transmission electron microscopy of the bacteria, approx. 2×10^8 CFU (colony forming units) of Bifidobacterium adolescentis Ni3,29c were incubated anaerobically for two hours at 37° C. in the absence or in the presence of 200 μg/ml synthetic defensin. The bacteria were centrifuged, fixed in prewarmed Karnovsky's solution and stored at 4° C. for 24 hours. After centrifugation, the pellet was embedded in 3.5% agarose at 37° C., coagulated at room temperature, cut into small blocks and fixed in Karnovsky's solution again. The post-fixing was based on 1.0% osmium tetroxide with 1.5% potassium ferrocyanide in 0.1 M cacodylate buffer. After embedding in glycidyl ether, the blocks were cut with an ultramicrotome (Ultracut, Reichert, Vienna, Austria). Ultrathin sections (30 nm) were applied on copper grids and analyzed with a Zeiss LIBRA 120 transmission electron microscope (Carl Zeiss, Oberkochen, Germany) at 120 kV.

Bacteroides vulgatus = test: antimicrobial radial diffusion assay, Bacteroides vulgatus; assay type: cell-based; conditions: 48 h
Protocol: (§1) During execution of the assay in 10 mM sodium phosphate with 0.3 mg/ml of trypticase soya broth (TSB) and 1% (w/v) agarose with low EEO (Sigma-Aldrich), incubation took place in anaerobic conditions with antimicrobial peptides and 0-2 mM DTT. The presence of a reducing environment was controlled by adding the redox indicator resazurin. After 48-h incubation, the diameter of the inhibition zones was measured and was evaluated statistically using GraphPad Prism 4.03 and Student's t-test.
(§2) Small concentrations of the reducing agent dithiothreitol (DTT) were added to the assay medium, whereas medium without DTT served as control.

[2] = test system: Bifidobacterium adolescentis; test: antimicrobial radial diffusion assay, Bif. adolescentis, with and without DTT; assay type: cell-based; conditions: for antimicrobial activity (diameter of the inhibition zones): anaerobic, 48 h
Protocol: as §1, §2

[3] = test system: Bifidobacterium adolescentis; test: flow-cytometry antimicrobial assay, bacterial membrane depolarization; assay type: cell-based
Protocol: Flow-cytometry antimicrobial assay, in which the membrane depolarization of the bacteria was measured, was carried out as described in: Nuding, S., et al., “Antibacterial activity of human defensins on anaerobic intestinal bacterial species: a major role of HBD-3.” Microbes. Infect. 11 (3), 384-393 (2009).
In order to investigate whether the observed inhibition of growth of Gram-positive anaerobes is bacteriostatic or bactericidal, flow-cytometry antimicrobial assays were carried out with bacterial membrane depolarization as the reading system. […] This pointed to a rapid bactericidal effect of the linear hBD-1.

[4] = test system: Lactobacillus acidophilus and L. fermentum; test: radial diffusion assay, Lactobacilli; assay type: cell-based, Lactobacillus spp.; conditions: oxidized or reduced peptide 3 μg, medium without DTT, 48 h
Protocol: as §1
(§3) (FIG. 3A). […] Furthermore, the same assay was carried out with the Gram-positive strains Lactobacillus acidophilus and L. fermentum, and with the Gram-negative strain Bacteroides vulgatus and the facultatively anaerobic strain Escherichia coli K12 (FIG. 3B).

Escherichia coli K12 = test: radial diffusion assay, Escherichia coli K12; assay type: cell-based; conditions: oxidized or reduced peptide 1.5 μg, medium without DTT, 48 h
Protocol: as §1, §3

[5] = test system: Bifidobacterium adolescentis, Bif. breve, Bif. longum and Bif. bifidum; test: radial diffusion assay, oxidized and reduced peptide against Bifidobacterium spp.; assay type: cell-based; conditions: oxidized or reduced peptide 1.5 μg, anaerobic, medium without DTT, 48 h
Protocol: as §1, §3

Candida albicans = test: flow cytometry assay, depolarized yeasts, clinical Candida isolates; assay type: cell-based; conditions: 40 μg/ml, 90-minute incubation, 5 clinical isolates
Protocol: (A) 1.5 μg oxidized and reduced hBD-1 was incubated with Bifidobacterium spp., Lactobacillus spp., Bacteroides vulgatus (B) and Escherichia coli. For Lactobacilli, the amount of defensin was 3 μg. The formation of inhibition zones was investigated after 48 hours, representative radial diffusion assays from 3 experiments are shown. […] The proportion of depolarized yeasts after 90-minute incubation with reduced or oxidized hBD-1, measured with a flow cytometry assay, is shown. hBD-1 red=reduced hBD-1, hBD-1 ox=oxidized hBD-1. The mean values+standard deviation of two experiments, carried out in each case in duplicate, are shown, (D) cysteine amino acids in the hBD-1 peptide were exchanged for alanine or serine and the hydrophobicity of the hBD-1 variants was analyzed by RP-HPLC. (E) flow cytometry assay for detecting bacterial membrane depolarization of Bifidobacterium adolescentis after incubation with reduced or oxidized hBD-1. Squares show an incubation time of 30 minutes, circles a time of 90 minutes. […] Fixed bacteria were analyzed by transmission microscopy, magnification bars=200 nm.
Flow-cytometry antimicrobial assay, in which the membrane depolarization of the bacteria was measured, was carried out as described in: Nuding, S., et al., “Antibacterial activity of human defensins on anaerobic intestinal bacterial species: a major role of HBD-3.” Microbes. […]

[6] = RP-HPLC analysis of hydrophobicity; assay type: physicochemical; conditions: water/acetonitrile gradient; reduced hBD-1 vs oxidized hBD-1, variants vs reduced hBD-1
Source text: For the high-performance liquid chromatography (HPLC) analysis, a system of the Agilent 1200 series and a Vydac 218TP-C18 column were used, using a water/acetonitrile gradient with trifluoroacetic acid as ion-pair reagent.

human thioredoxin = target: T1, human thioredoxin (Homo sapiens, UniProt P10599); test: thioredoxin reductase assay (reduction of hBD-1, RP-HPLC); assay type: biochemical; conditions: 10 μM hBD-1, 0.5-1.5 μM thioredoxin, 100 nM thioredoxin reductase, 0.8 mM NADPH, 30 minutes, 37° C.
T1 sequence (P10599 1-105): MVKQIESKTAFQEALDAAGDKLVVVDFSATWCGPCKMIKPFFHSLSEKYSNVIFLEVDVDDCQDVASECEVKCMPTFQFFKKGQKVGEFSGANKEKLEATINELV
Protocol: FIG. 4 Thioredoxin (TRX) co-localized with hBD-1 and is capable of catalyzing the reduction of hBD-1. (A) immuno-histochemistry staining of hBD-1 and thioredoxin of human colon sections. Magnification bars=100 μm. (B) 10 μM oxidized hBD-1 was incubated with or without 0.5, 1.0 and 1.5 μM human thioredoxin and 100 nM rat thioredoxin reductase for 30 minutes at 37° C. in 0.10 M potassium phosphate-2 mM EDTA, pH 7.0 buffer and 0.8 mM NADPH. Incubation assays were analyzed by RP-HPLC and the transformation of oxidized to reduced hBD-1 was observed. hBD-1 ox=oxidized hBD-1, hBD-1 red=reduced hBD-1. […] Formation of inhibition zones was investigated after incubation for 48 hours, representative assays are shown.
The thioredoxin reductase assay was carried out as follows: For this, oxidized hBD-1 was incubated with 0.5-1.5 μM thioredoxin or protein disulfide-isomerase in the presence of 100 nM thioredoxin reductase and 0.8 mM NADPH in 0.1 M […] phosphate buffer-2 mM EDTA. The incubation mixtures were analyzed by RP-HPLC, with which the transformation of oxidized to reduced hBD-1 peptide could be observed.

[7] = with or without DTT (1 mM or 2 mM), 0.5-2.0 μg peptide
[8] = reducing conditions (DTT added, 1 mM or 2 mM)
[9] = oxidized or reduced peptide 1.5 μg, medium without DTT
[10] = 30 minutes of incubation, 60 μg/μl

Substance	morphology of the bacterial cells [1]	antimicrobial activity (inhibition zones) (Bacteroides vulgatus; [7])	antimicrobial activity (diameter of the inhibition zones) ([2]; medium without DTT)	antimicrobial activity (diameter of the inhibition zones) [2, 8]	antimicrobial activity (inhibition zones) (Bacteroides vulgatus; [9])	membrane depolarization of the bacteria [3, 10]	antimicrobial activity (inhibition zones) [4]	antimicrobial activity (inhibition zones) (Escherichia coli K12)	antimicrobial activity (inhibition zones) [5]	antifungal activity (proportion of depolarized yeasts) (Candida albicans)	also measured
human beta-defensin 3 (GIINTLQKYYCRVRGGRCAVLSCLPKEEQIGKCSTRGRKCCRRKK; UniProt P81534 23-67, looked up) [hBD-3, reference compound]	mainly attacks the bacterial membrane	concentration-dependent inhibition zones	strong antimicrobial activity	slightly reduced antimicrobial activity; also recorded: reduced activity	–	–	–	–	–	–	–
lysozyme [reference compound]	–	–	–	slightly reduced antimicrobial activity	–	–	–	–	–	–	–
hBD-1Δ30-36: shortened variant of hBD-1 without the seven C-terminal amino acids GKAKCCK (SEQ ID No. 1) (DHYNCVSSGGQCLYSACPIFTKIQGTCYR; ends and bridges not checked; cysteine pairing not given here; UniProt P60022 33-61, looked up, fragment)	–	–	unable to inhibit the growth	unable to inhibit the growth	–	–	–	–	–	–	–
oxidized hBD-1: fully oxidized hBD-1 possessing all disulfide bridges (DHYNCVSSGGQCLYSACPIFTKIQGTCYRGKAKCCK; disulfide (positions not given here); also: three disulfides, pairing not given here)	did not show morphological damage of any kind	–	–	–	no effect	no significant depolarization	no effect at all	antimicrobial activity; also recorded: sensitive	did not show any antimicrobial activity	no action and not	membrane depolarization of the bacteria ([3]; 90 minutes of incubation): no significant depolarization
reduced hBD-1: fully reduced, linear hBD-1 with free cysteine residues (DHYNCVSSGGQCLYSACPIFTKIQGTCYRGKAKCCK; Beta-defensin 1 reduced, free cysteines; UniProt P60022 33-68, looked up)	cellular disintegration	–	–	–	no effect	50%	clear inhibition zones	antimicrobial activity	antimicrobial activity against all the strains tested	active against 4 out of 5 clinical Candida isolates; also recorded: effective antifungal activity against four out of five strains	hydrophobicity (RP-HPLC) [6]: more hydrophobic; also recorded: increase in the hydrophobicity; effectiveness compared with the oxidized form ([3]; flow cytometry, membrane depolarization): more effective
human beta-defensin 1 (DHYNCVSSGGQCLYSACPIFTKIQGTCYRGKAKCCK; disulfide (positions not given here); also: three disulfides, pairing not given here) [hBD-1, synthetic human beta-defensin 1, antimicrobial peptide with three disulfide bridges]	–	did not show any antimicrobial activity; also recorded: growth-inhibiting effect was not observed	no effect on the growth	antimicrobial activity only through reduction	–	–	–	–	–	–	transformation of oxidized to reduced hBD-1 (human thioredoxin): reduced by thioredoxin; antimicrobial activity compared with hBD-3 ([2]; 2 mM DTT): as effective as hBD-3; antimicrobial activity ([2]; in the presence of 150 mM sodium chloride (data not shown)): disappeared; antimicrobial activity (diameter of the inhibition zones) ([2]; medium with 1 mM DTT): concentration-dependent inhibition zones
